Values of other authors, collected in patent US4925675A (hiMedics, Inc., priority 1988, dated 1990).
Where two headings read alike, the source gives them in different places.

Experiments:
[1] = in vivo

CC[C@H]1OC(=O)[C@H](C)[C@@H](O[C@H]2C[C@@](C)(OC)[C@@H](O)[C@H](C)O2)[C@H](C)[C@@H](O[C@@H]2O[C@H](C)C[C@H](N(C)C)[C@H]2O)[C@](C)(O)C[C@@H](C)C(=O)[C@H](C)[C@@H](O)[C@]1(C)O [Erythromycin]
pKa: 8.7
solubility in simulated intestinal fluid (SIF): very soluble
solubility in alcohol, chloroform, ether and acetone (alcohol, chloroform, ether and acetone): freely soluble
solubility in amyl acetate and ethylene dichloride (amyl acetate and ethylene dichloride): moderately soluble
solubility in water: very slightly soluble
solubility in water (listed as erythromycin): not highly soluble
absorption in small intestine versus stomach [1]: better absorption characteristics in the small intestine than in the stomach
